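The compound was tested at five concentrations on cells cultured in 96-well plates, with a 48-hour exposure period. GI50 marks 50% less growth.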 Calls of active or inactive are those of the source. Cut-off read from the data, not from the text of the source: active = GI50 up to about 1.1 µM and inactive = higher.
Experiments:
Assay in all cases: NCI-60 cell line screen, 48 h
A498 = system: A498
A549 = system: A549
SW-620 = system: SW-620
LOX IMVI = system: LOX IMVI
NCI-H460 = system: NCI-H460
MDA-MB-435 = system: MDA-MB-435
UO-31 = system: UO-31
OVCAR-3 = system: OVCAR-3
M14 = system: M14
SF-539 = system: SF-539
ACHN = system: ACHN
HOP-62 = system: HOP-62
COLO 205 = system: COLO 205
MCF7 = system: MCF7
DU-145 = system: DU-145
K562 = system: K562
Malme-3M = system: Malme-3M
SK-MEL-28 = system: SK-MEL-28
HOP-92 = system: HOP-92
CAKI-1 = system: CAKI-1
SK-MEL-5 = system: SK-MEL-5
BT-549 = system: BT-549
PC-3 = system: PC-3
U-251 = system: U-251
MDA-N = system: MDA-N
UACC-257 = system: UACC-257
SF-268 = system: SF-268
KM12 = system: KM12
RPMI-8226 = system: RPMI-8226
IGROV-1 = system: IGROV-1
NCI/ADR-RES = system: NCI/ADR-RES
HCT-116 = system: HCT-116
786-0 = system: 786-0
OVCAR-5 = system: OVCAR-5
MOLT-4 = system: MOLT-4
SN12C = system: SN12C
CCRF-CEM = system: CCRF-CEM
MDA-MB-231 = system: MDA-MB-231
HCC 2998 = system: HCC 2998
NCI-H23 = system: NCI-H23
Hs-578T = system: Hs-578T
RXF 393 = system: RXF 393
SK-OV-3 = system: SK-OV-3
UACC-62 = system: UACC-62
SK-MEL-2 = system: SK-MEL-2
HCT-15 = system: HCT-15
SR = system: SR
T47D = system: T47D
SNB-75 = system: SNB-75
SF-295 = system: SF-295
SNB-19 = system: SNB-19
TK-10 = system: TK-10
HT-29 = system: HT-29
OVCAR-4 = system: OVCAR-4
HL-60 = system: HL-60
EKVX = system: EKVX
OVCAR-8 = system: OVCAR-8
NCI-H226 = system: NCI-H226
NCI-H522 = system: NCI-H522

[N-]=[N+]=Nc1nc2ccccc2c(N=[N+]=[N-])c1Cl
GI50 (A498): 6.81 µM (inactive)
GI50 (A549): > 100 µM (inactive)
GI50 (SW-620): > 100 µM (inactive)
GI50 (LOX IMVI): > 100 µM (inactive)
GI50 (NCI-H460): > 100 µM (inactive)
GI50 (MDA-MB-435): > 100 µM (inactive)
GI50 (UO-31): > 100 µM (inactive)
GI50 (OVCAR-3): > 100 µM (inactive)
GI50 (M14): > 100 µM (inactive)
GI50 (SF-539): 96.8 µM (inactive)
GI50 (ACHN): > 100 µM (inactive)
GI50 (HOP-62): 79.1 µM (inactive)
GI50 (COLO 205): > 100 µM (inactive)
GI50 (MCF7): > 100 µM (inactive)
GI50 (DU-145): > 100 µM (inactive)
GI50 (K562): > 100 µM (inactive)
GI50 (Malme-3M): > 100 µM (inactive)
GI50 (SK-MEL-28): > 100 µM (inactive)
GI50 (HOP-92): 30.3 µM (inactive)
GI50 (CAKI-1): > 100 µM (inactive)
GI50 (SK-MEL-5): > 100 µM (inactive)
GI50 (BT-549): 28.6 µM (inactive)
GI50 (PC-3): > 100 µM (inactive)
GI50 (U-251): > 100 µM (inactive)
GI50 (MDA-N): > 100 µM (inactive)
GI50 (UACC-257): > 100 µM (inactive)
GI50 (SF-268): > 100 µM (inactive)
GI50 (KM12): > 100 µM (inactive)
GI50 (RPMI-8226): > 100 µM (inactive)
GI50 (IGROV-1): > 100 µM (inactive)
GI50 (NCI/ADR-RES): > 100 µM (inactive)
GI50 (HCT-116): > 100 µM (inactive)
GI50 (786-0): 56.2 µM (inactive)
GI50 (OVCAR-5): > 100 µM (inactive)
GI50 (MOLT-4): > 100 µM (inactive)
GI50 (SN12C): > 100 µM (inactive)
GI50 (CCRF-CEM): > 100 µM (inactive)
GI50 (MDA-MB-231): > 100 µM (inactive)
GI50 (HCC 2998): > 100 µM (inactive)
GI50 (NCI-H23): > 100 µM (inactive)
GI50 (Hs-578T): 31.6 µM (inactive)
GI50 (RXF 393): 25.6 µM (inactive)
GI50 (SK-OV-3): 92 µM (inactive)
GI50 (UACC-62): 98.4 µM (inactive)
GI50 (SK-MEL-2): > 100 µM (inactive)
GI50 (HCT-15): > 100 µM
GI50 (SR): > 100 µM (inactive)
GI50 (T47D): > 100 µM (inactive)
GI50 (SNB-75): 24.9 µM (inactive)
GI50 (SF-295): > 100 µM (inactive)
GI50 (SNB-19): > 100 µM (inactive)
GI50 (TK-10): > 100 µM (inactive)
GI50 (HT-29): > 100 µM (inactive)
GI50 (OVCAR-4): 68.9 µM (inactive)
GI50 (HL-60): > 100 µM (inactive)

CC(C)(C)[Si](C)(C)O[C@@H](C(=O)OC1C=CCCC1)[C@@H](NC(=O)c1ccccc1)c1ccccc1 (some centres not stated)
GI50 (A498): 35.6 µM (inactive)
GI50 (A549): 17.6 µM (inactive)
GI50 (SW-620): 26.2 µM (inactive)
GI50 (LOX IMVI): 16.7 µM (inactive)
GI50 (NCI-H460): 19.9 µM (inactive)
GI50 (MDA-MB-435): 29.3 µM (inactive)
GI50 (UO-31): 27.7 µM (inactive)
GI50 (OVCAR-3): 16.1 µM (inactive)
GI50 (SF-539): 61.1 µM (inactive)
GI50 (ACHN): 19.1 µM (inactive)
GI50 (HOP-62): 18.4 µM (inactive)
GI50 (COLO 205): 25.3 µM (inactive)
GI50 (MCF7): 14.8 µM (inactive)
GI50 (DU-145): 50.4 µM (inactive)
GI50 (EKVX): 31.7 µM (inactive)
GI50 (K562): 14 µM (inactive)
GI50 (Malme-3M): 40.3 µM (inactive)
GI50 (SK-MEL-28): 34 µM (inactive)
GI50 (HOP-92): 8.99 µM (inactive)
GI50 (CAKI-1): 48.6 µM (inactive)
GI50 (SK-MEL-5): 16.8 µM (inactive)
GI50 (BT-549): 51.1 µM (inactive)
GI50 (PC-3): 9.1 µM (inactive)
GI50 (U-251): 18.2 µM (inactive)
GI50 (OVCAR-8): 56.4 µM (inactive)
GI50 (MDA-N): 31 µM (inactive)
GI50 (UACC-257): 19.7 µM (inactive)
GI50 (SF-268): 69.5 µM (inactive)
GI50 (KM12): 25.6 µM (inactive)
GI50 (RPMI-8226): 4.79 µM (inactive)
GI50 (IGROV-1): 37.3 µM (inactive)
GI50 (NCI/ADR-RES): 28.6 µM (inactive)
GI50 (HCT-116): 12.6 µM (inactive)
GI50 (NCI-H226): 37.8 µM (inactive)
GI50 (786-0): 23.8 µM (inactive)
GI50 (OVCAR-5): 24.4 µM (inactive)
GI50 (MOLT-4): 14.7 µM (inactive)
GI50 (SN12C): 21 µM (inactive)
GI50 (CCRF-CEM): 12.1 µM (inactive)
GI50 (MDA-MB-231): 19.1 µM (inactive)
GI50 (HCC 2998): 14.1 µM (inactive)
GI50 (NCI-H23): 29 µM (inactive)
GI50 (Hs-578T): 53.6 µM (inactive)
GI50 (RXF 393): 3.68 µM (inactive)
GI50 (SK-OV-3): 84.1 µM (inactive)
GI50 (UACC-62): 26.8 µM (inactive)
GI50 (SK-MEL-2): 18 µM (inactive)
GI50 (HCT-15): 20 µM
GI50 (NCI-H522): 16.6 µM (inactive)
GI50 (SR): 15.1 µM (inactive)
GI50 (T47D): 20 µM (inactive)
GI50 (SNB-75): 27.7 µM (inactive)
GI50 (SF-295): 18.9 µM (inactive)
GI50 (SNB-19): 28.8 µM (inactive)
GI50 (TK-10): 16.5 µM (inactive)
GI50 (HT-29): 14.3 µM (inactive)
GI50 (OVCAR-4): 21.5 µM (inactive)
